Values joined by “and” are separate entries in the source; they are usually repeats but may differ in a detail not shown here. Equal values may be shown once. Active and inactive are the calls of the source.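 The calls were made as follows: active = compounds giving half or more protection of infected cells from virus-caused growth loss, again on retest; inactive = the rest.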 Where a SMILES comes first, the peptide text is derived from it. [ ]: non-standard residue; d: D form. The star is where a group is joined. Phe(4-NO2) = N[CH](Cc1ccc([N+](=O)[O-])cc1)C(=O)O; NMeAc5c = CNC1(C(=O)O)CCCC1; Cbz = O=C(OCc1ccccc1)*; Boc = CC(C)(C)OC(=O)*; OBn = c1ccc(CO*)cc1; tBu = CC(C)(C)*
Test system: CEM cells HIV-1 protection, formazan growth assay
Assay: NCI AIDS Antiviral Assay
Details: for IC50: measured here: growth of uninfected CEM cells
In short: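 Protection of CEM cells against HIV-1 measured as cell growth via soluble formazan read-out, with five concentrations tested on both infected and uninfected cells; failure to protect may reflect toxicity.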

| Compound | EC50 [µM] | IC50 | outcome |
| --- | --- | --- | --- |
| CCOC(=O)C(OP(=O)(OCC)OCC)C(F)(F)F (configuration not stated) | > 200 | > 200 µM |  |
| O=C(C=C1SCCS1)/C=C\c1ccc(Cl)cc1 | > 35.5 | > 35.5 µM |  |
| COc1cccc(NC(=O)CSc2nnc(Cc3ccccc3)o2)c1 | > 100 | > 100 µM |  |
| CC(OC(C)(C)C)C(NC(=O)C(CCCCNC(=O)OC(C)(C)C)NC(=O)C(Cc1c[nH]c2ccccc12)NC(=O)OCc1ccccc1)C(=O)NC(Cc1ccccc1)C(=O)N(C)C1(C(=O)NC(Cc2ccccc2)C(=O)OCc2ccccc2)CCCC1 (configuration not stated) (Cbz-WK(Boc)T(tBu)F[NMeAc5c]F-OBn; configuration not given here) | > 50.1 | 38.9 µM |  |
| CCC1=CCN(c2cc(C)ccn2)OC1c1ccc(OC)cc1 (configuration not stated) | > 32.4 | > 32.4 µM |  |
| [N-]=[N+]=NCc1cccc(Nc2cc(=O)[nH]c(=O)[nH]2)c1 | 49 | > 200 µM |  |
| CCCCSc1cc(Cc2cc(C)ccc2O)c(O)c(Cc2cc(C)ccc2O)c1 | > 200 | 10 µM |  |
| CSc1nc2[nH]c(=O)n(O)c(=O)c2n1Cc1ccccc1 | > 200 | 3.8 µM |  |
| COC(=O)CC(=O)C[P+](c1ccccc1)(c1ccccc1)c1ccccc1 | > 550 | 42.7 µM |  |
| Cc1ccc(NC(=O)/C(=N\Nc2ccc([N+](=O)[O-])cc2[N+](=O)[O-])C2C(=O)NC(=O)NC2=O)cc1 |  |  | inactive |
| CN=S(=O)(c1ccccc1)C1(C)CC(C)=C(C)CS1=O (configuration not stated) | > 200 | 132 µM |  |
| COc1ccccc1/C=C1\C(=O)N(C(=O)Cc2ccccc2)N=C1C | > 15.5 | > 15.5 µM |  |
| CC(=O)C1N=Nc2nc3c(=O)n(C)c(=O)n(C)c3n2C1=O (configuration not stated) | > 200 | > 200 µM |  |
| CC[C@]12CN3CCc4c([nH]c5ccccc45)[C@@](C(=O)OC)(c4cc5c(cc4OC)N(C)[C@H]4[C@@](O)(C(=O)OC)[C@H](OC(C)=O)[C@]6(CC)C=CCN7CC[C@]54[C@@H]76)CC(C3)[C@H]1O2 (some centres not stated) | > 2 | 0.141 µM and 0.0447 µM |  |
| Oc1cccc(C(O)CNC2CCCCC2)c1 (configuration not stated) | > 200 | > 200 µM |  |
| Cc1cc(N=Nc2ccc(NC(=O)c3ccc(N)cc3)cc2C)ccc1N=Nc1ccc2c(O)c(N=Nc3ccc(S(=O)(=O)O)cc3)c(S(=O)(=O)O)cc2c1 | 15.1 | 105 µM |  |
| CC1=C(C)C2(OC1=O)C(O)C(C)[C@]1(O)CCC3C4CC=C5CC=CC(=O)[C@]5(C)C4C[C@@]2(O)[C@@]31C (some centres not stated) |  |  | inactive |
| Cc1ccc(S(=O)(=O)/C(C#N)=C\N2CC(=O)NC2=S)cc1 | > 200 | > 200 µM |  |
| Cc1cccc2c1Oc1ncccc1C2NC(=O)CN(C)C (configuration not stated) | > 200 | > 200 µM |  |
| NNC(=O)c1ccc(OCc2nc3ccccc3[nH]2)cc1 | > 200 | 67.6 µM |  |
| CC(=O)OC1=C2CC[C@@H]3C(CC[C@@]4(C)C3CC[C@@H]4OC(C)=O)[C@@]2(C)CC(C#N)C1=O (some centres not stated) |  |  | inactive |
| N/C(CSCCSC/C(N)=N/O)=N\O | > 200 | > 200 µM |  |
| COc1cc(/C=C/C=C2\CC(C)C/C(=C\C=C\c3ccc(O)c(OC)c3)C2=O)ccc1O (configuration not stated) | > 200 | 1.41 µM |  |
| O=C(O)CCSCc1cc(C(=O)Nc2ccc(/C=C/c3ccc(NC(=O)c4cc(CSCCC(=O)O)c5cccnc5c4O)cc3S(=O)(=O)O)c(S(=O)(=O)O)c2)c(O)c2ncccc12 | 1.51 | 33.9 µM |  |
| CC(C)C1NC(=O)c2ccccc2S1 (configuration not stated) | > 871 | 195 µM |  |
| Nc1ncnc2c1N=C(c1ccccc1)CC(c1ccccc1)N2 (configuration not stated) | > 200 | > 200 µM |  |
| COc1ccc2c(c1)C1OCCNC1CC2 (configuration not stated) | > 200 | > 200 µM |  |

| Compound | EC50 [µM] | IC50 | outcome |
| --- | --- | --- | --- |
| Cc1cccc2c(NCCN(C)C)c3cccc(C(=O)NCCN(C)C)c3nc12 | > 0.2 | 0.195 µM |  |
| Cc1c([N+](=O)[O-])c(=O)oc2cc3occc(=O)c3cc12 | > 36.3 | 18.2 µM |  |
| COc1cccc(C2CC(=O)c3cccn32)c1 (configuration not stated) |  |  | inactive |
| N#CC12CC=C(c3ccccc3)N=C1NC(c1ccccc1)=CC2 (configuration not stated) | > 200 | 23.4 µM |  |
| NC(CSCCCS(=O)(=O)O)C(=O)O (configuration not stated) | > 200 | > 200 µM |  |
| CN(C)C(=S)/N=c1\ssc(=Nc2ccccc2)n1C |  |  | inactive |
| CCOC(=O)C(N)CSSCC(N)C(=O)OCC (configuration not stated) | > 200 | > 200 µM |  |
| CC1=NNC(=O)C12CC2 |  |  | inactive |
| CCOc1ccc(N=Nc2ccc3oc(=O)c(/C(C)=N\NC(=O)CC(=O)Nc4ccc(Cl)cc4)cc3c2)cc1 | > 13.2 | > 13.2 µM |  |
| O=C1OCSc2ccccc21 | > 1070 | 178 µM |  |
| O=C1C(Br)=C[C@H]2C3C=CC(Br)(C3=O)[C@@H]12 (some centres not stated) | > 794 | 3.72 µM |  |
| C=C(C)C(=O)O[C@H]1C[C@@]23O[C@@H]2CCC(=C[C@H]2OC(=O)C(=C)[C@H]12)COC3O (some centres not stated) | > 195 | 38 µM |  |
| C=C1CN(S(=O)(=O)c2ccc(C)cc2)CCCN(Cc2ccncc2)CCCN(S(=O)(=O)c2ccc(C)cc2)C1 | > 200 | 4.37 µM |  |
| O=c1c2cccnc2[nH]c2ccc3[nH]ncc3c12 | > 200 | 50.1 µM |  |
| CCCc1cc(=O)c2c(C)c3[nH]c4ccc(Cl)cc4c3c(C)c2[nH]1 | > 200 | 11 µM |  |
| CCOC(=O)CC1=NC(C)(C)CC(C)O1 (configuration not stated) | > 200 | > 200 µM |  |
| CCOC(=O)N(c1ccccc1)c1cc(=O)n2ccccc2n1 | > 200 | > 200 µM |  |
| O=c1ccccc2cccc(O)c12 |  |  | inactive |
| CC(=O)Nc1ccc(/C=C(\NC(=O)c2ccccc2)c2nc3ccc4c(c3[nH]2)C(=O)c2ccccc2C4=O)cc1 |  |  | inactive |
| O=S(=O)(OC1CC12CCCCC2c1ccccc1)c1ccccc1 (configuration not stated) | > 200 | > 200 µM |  |
| Nc1ccc(S(=O)(=O)Nc2cnc3ccccc3n2)cc1 | > 316 | > 316 µM |  |
| CSC1NNC2(C(=O)N1)c1ccccc1-c1ccccc12 (configuration not stated) | > 200 | 26.9 µM |  |
| COC(=O)c1noc2c1CSc1ccccc1-2 | > 263 | 123 µM |  |
| CCC(C)C(NC(=O)C(N)CCCCN)C(=O)NC(CCC(N)=O)C(=O)NC(CO)C(=O)NC(C(=O)O)C(C)O (configuration not stated) (H-KIQST-OH; configuration not given here) | > 115 | > 115 µM |  |
| O=Nc1c(O)ccc2ccccc12.O=Nc1c(O)ccc2ccccc12.O=Nc1c([O-])ccc2ccccc12.[Fe+3] | > 129 | 95.5 µM |  |
| Fc1cccc(Cl)c1C1SCc2nc3cc4ccccc4cc3n21 (configuration not stated) | > 200 | 158 µM |  |
| COc1ccc(OC)c(/C=C/c2ccccc2)c1 | 0.0631 | 110 µM |  |

| Compound | EC50 [µM] | IC50 | outcome |
| --- | --- | --- | --- |
| N#Cc1nc(-c2ccc(-c3nc(C#N)c(N)o3)cc2)oc1N | > 200 | > 200 µM |  |
| CC(=O)CC(=O)N1CCOC1=O | > 200 | 36.3 µM |  |
| Nn1c(=S)[nH]n2cnnc12 | > 1580 | 186 µM |  |
| COc1cccc(N2C(=O)CC(Sc3ccccc3N)C2=O)c1 (configuration not stated) | > 200 | > 200 µM |  |
| CC(C)c1ccccc1NC(=O)/C(Cl)=C1/Sc2ccccc2NC1=O | > 10 | > 10 µM |  |
| COC(=O)CCC(NC(=O)C(CCC(=O)OC)NC(=O)C(CCC(=O)OC)NC(=O)C(CCC(=O)OC)NC(=O)C(CCC(=O)OC)NC(=O)C(Cc1ccc([N+](=O)[O-])cc1)NC(=O)C(CCC(=O)OC)NC(=O)C(CCC(=O)OC)NC(=O)C(CCC(=O)OC)NC(=O)C(CCC(=O)OC)NC(=O)C(CCC(=O)OC)NC(C)=O)C(N)=O (configuration not stated) (Ac-E(OMe)E(OMe)E(OMe)E(OMe)E(OMe)[Phe(4-NO2)]E(OMe)E(OMe)E(OMe)E(OMe)E(OMe)-NH2; configuration not given here) | > 100 | > 100 µM |  |
| COc1ccc(-c2oc3c(Cl)cc(Cl)cc3c(=O)c2O)cc1OC | > 200 | > 200 µM |  |
| Cn1c[n+](C2OC(CO)C(O)C2O)c2nc([O-])[nH]c(=O)c21 (configuration not stated) | > 17.4 | 9.77 µM |  |
| COc1cc(C2NCCC(c3ccccc3)(c3ccccc3)N2)cc(OC)c1OC (configuration not stated) | > 200 | 19.5 µM |  |
| COc1cccc2c(NCCC[N+](C)(C)[O-])c3c([N+](=O)[O-])ccc(OC)c3nc12 | > 200 | 1.32 µM |  |
| [CH3][Sn]1([CH3])[O]C(=O)CCN=Cc2c(ccc3ccccc23)[O][Sn]([CH3])([CH3])[O]C(=O)CCN=Cc2c(ccc3ccccc23)[O]1 | > 200 | 20 µM |  |
| N#Cc1cc2c(n(C3OC(CO)C(O)C(O)C3O)c1=S)CCCC2 (configuration not stated) | > 200 | > 200 µM |  |
| Cc1ccc(S(=O)(=O)N2CCC2c2ccccc2)cc1 (configuration not stated) |  |  | inactive |
| COc1cc2c(c3oc(=O)ccc13)[C@@H](OC(=O)C13CCC(C)(C(=O)O1)C3(C)C)[C@@H](OC(=O)C13CCC(C)(C(=O)O1)C3(C)C)C(C)(C)O2 (some centres not stated) | 0.324 | > 200 µM |  |
| O=C(Nc1ccc(CN2CCOCC2)cc1)c1ccc(C(=O)Nc2ccc(CN3CCOCC3)cc2)cc1 | > 200 | > 200 µM |  |
| O=c1cc(NNc2ccccc2)[nH]c(=S)[nH]1 | > 200 | 12.3 µM |  |
| Cc1ccc(S(=O)(=O)OCC/C(=C\[Si](C)(C)C)c2ccccc2)cc1 |  |  | inactive |
| Cn1c(=S)[nH]c(N)c(Cc2ccccc2)c1=O | > 200 | 64.6 µM |  |
| c1ccc2c3c(ccc2c1)CSCc1ccc2ccccc2c1-3 | > 200 |  |  |
| NCCCCC1NC(=O)C(CO)NC(=O)C(Cc2cnc[nH]2)NC(=O)CNC(=O)C(Cc2c[nH]c3ccccc23)NC(=O)C(Cc2c[nH]c3ccccc23)NC(=O)C(Cc2ccccc2)NC1=O (configuration not stated) (cyclo(GHSKFWW); configuration not given here) | > 50.1 | > 50.1 µM |  |
| N#Cc1sc2c(c1OC(=O)c1cccs1)c(=O)n(-c1ccccc1)c(=S)n2-c1ccccc1 | > 200 | 6.03 µM |  |
| Cc1[nH]c(=O)[nH]c(=O)c1CN1CCCCC1 | > 6.46 | > 6.46 µM |  |
| N[C@H]1c2c(Cl)cccc2C(=O)[C@H]1O | > 200 | 11 µM |  |
| COC1/C=C/OC2(C)Oc3c(C)c(O)c4c(O)c(cc(OCC(=O)N(C)C5CCCCC5)c4c3C2=O)NC(=O)/C(C)=C/C=C/C(C)C(O)C(C)C(O)C(C)C(OC(C)=O)C1C (configuration not stated) | > 200 | 12.3 µM |  |
| O=C(CC1Sc2ccccc2NC1=O)Nc1cccc(Cl)c1 (configuration not stated) | > 56.2 | > 56.2 µM |  |

Source: PubChem BioAssay AID179 (DTP/NCI, 2004)
